Laboratory results reported in publication PMC7764243, “Alterins Produced by Oyster-Associated Pseudoalteromonas Are Antibacterial Cyclolipopeptides with LPS-Binding Activity” (Marine Drugs, 2020).
Values after ≈ are worked out from the molar mass of the structure shown. *1 amine or outer side, *2 acyl side, *3 side chain or, on linkers, in order; H or OH if unused. Where a SMILES comes first, the peptide text is derived from it. Bridges are numbered along the chain shown (N, C = ends). [ ]: non-standard residue; d: D form. The star is where a group is joined. ξ: configuration not given here. Dab(3ξ-OH) = O=C([C@@H](N[*:1])C(O)CN[*:3])[*:2]; Decanoyl(3ξ-OH) = CCCCCCCC(O)CC(=O)*; X1 = C/C=C(/N[*:1])C(=O)[*:2]; Dab = NCC[C@H](N)C(=O)O

Assays:
[1] = tested on: V. parahaemolyticus 13-028A/3; type: cell-based, Vibrio parahaemolyticus; settings: broth microdilution, 0.1 to 100 µM, 1.10^6 UFC/mL, 48 h, read by unaided eye
Experimental: (§1) Antibacterial activity was assayed against a panel of micro-organisms including human and aquaculture pathogenic bacterial species. MICs were performed and defined according to internationally recognized standards (CLSI [21]). Polymyxin B (PMB), an antibiotic CLP produced by Paenibacillus polymyxa, was used as positive control. The major produced alterins, i.e., alt_952, alt_954, alt_970 and alt_980 were assayed against the whole panel of target cells while the minor ones were only tested against a few bacterial strains (Table 2).
(§2) The bacterial strains Aeromonas caviae CIP 7616, Aeromonas hydrophila CIP 7614, Escherichia coli ML35, Escherichia coli SBS 363, Salmonella enterica CIP 8297 and Yersinia ruckeri ATCC 29473 were grown in Tryptic Soy Broth. The marine bacterial strains Vibrio crassostreaeJ2–9, Vibrio tasmaniensisLGP32, Vibrio tapetis CECT 4600 were grown in Marine Broth. All of them were cultivated at optimal temperature according to ATCC and CIP specifications. The strain Vibrio parahaemolyticus13-028A/3 was grown at 28 °C in Tryptic Soy Broth supplemented in NaCl (20 g.L^−1) according to [47]. The strains Pseudoalteromonas sp. hCg-6 and hCg-42 were cultured using a synthetic medium containing: 17.11 g sucrose, 30 g sea salts (Sigma-S9883), 7.6 g K2HPO4, 3 g KH2PO4 and 20 mL MEM 50X (Dulbecco) per liter. The cultures were grown at 18 °C for 72 h with shaking (100 rpm).
(§3) MICs were determined using broth microdilution method according to [21]. To resume, antibacterial compounds ranging from 0.1 to 100 µM were assayed against the target bacteria in mid-logarithmic phase culture (1.10^6 UFC.mL^−1) in adapted culture medium according to the strain. MICs were examined by unaided eye after a 48h-incubation time at the optimal temperature growth. The lipopeptide PMB (Sigma-P4932) was used as antibiotic control.

[2] = LPS binding, surface plasmon resonance (Biacore); parameters: species or system Escherichia coli; settings: CLPs immobilized (500–600 RU) on CM5 chip, titrated with LPS, 25 °C, 10 mM Hepes pH 7.4, 150 mM NaCl, 3 mM EDTA
From the text: To gain insights into LPS-alterin interactions, we used an endotoxin detection assay, the QCL-1000^TM Endpoint chromogenic Limulus Amoebocyte Lysate (LAL) assay (Lonza). We compared alt_954, alt_970 and alt_980 for their ability to bind LPS from E. coli O111:B4. All alterins bound to LPS in a dose-dependent manner, as indicated by the reduction of biologically active LPS with increasing alterins concentrations (Figure 4A). […] To examine alterin LPS-binding properties in more detail, we performed a surface plasmon resonance (SPR) assay using the Biacore technology (GE Healthcare). The SPR binding measurements were performed using the alt_954 and alt_970. PMB was used as a positive control. The CLPs were immobilized to a CM5 sensor chip surface and titrated with LPS. […] The dose-dependent effect observed (Figure 4B) highlights the LPS-binding properties of the alterins. Both LPS-binding assays, i.e., LAL and SPR, are fully agreeing for alt_954. Moreover, the LPS-binding properties of alterins followed the same general pattern as that of antibacterial activity.
Surface plasmon resonance experiments were carried out at 25 °C using a BIACORE 3000 apparatus (GE Healthcare, Uppsala, Sweden). […] The binding level in RU was measured at the end of the binding after normalization to the same CLP coated level.

Y. ruckeri ATCC 29473 = type: cell-based, Yersinia ruckeri; settings: Y. ruckeri ATCC 29473; broth microdilution, 0.1 to 100 µM, 1.10^6 UFC/mL, 48 h, read by unaided eye
Experimental: as §1, §2, §3

P. aeruginosa ATCC 27853 = type: cell-based, Pseudomonas aeruginosa; settings: P. aeruginosa ATCC 27853; broth microdilution, 0.1 to 100 µM, 1.10^6 UFC/mL, 48 h, read by unaided eye
Experimental: as §1, §3

A. caviae CIP 7616 = type: cell-based, Aeromonas caviae; settings: broth microdilution, 0.1 to 100 µM, 1.10^6 UFC/mL, 48 h, read by unaided eye
Experimental: as §1, §2, §3

V. tasmaniensis LGP 32 = type: cell-based, Vibrio tasmaniensis; settings: V. tasmaniensis LGP 32; broth microdilution, 0.1 to 100 µM, 1.10^6 UFC/mL, 48 h, read by unaided eye
Experimental: as §1, §2, §3

V. tapetis CECT 4600T = type: cell-based, Vibrio tapetis; settings: V. tapetis CECT 4600T; broth microdilution, 0.1 to 100 µM, 1.10^6 UFC/mL, 48 h, read by unaided eye
Experimental: as §1, §2, §3

V. tasmaniensis LGP32 = test: Viability (cultivability, CFU count) in seawater; type: cell-based, Vibrio tasmaniensis; settings: 20 µM, 4 h incubation in sterile seawater, inoculum 1.10^6 UFC/mL, plated in duplicate
Experimental: As a first step, we have measured the antimicrobial activity of alt_952, alt_954, alt_970 and alt_980 against V. tasmaniensis LGP32 in seawater after a 4 hour-long incubation. […] The effects on membrane were also investigated under the same experimental conditions using live/dead bacterial viability kit for flow cytometry (Figure 6). A net cultivability loss of V. tasmaniensis (2-log reduction) was observed when incubated with alt_954 and alt_980 indicative of a bactericidal effect (Figure 7A). In these conditions, V. tasmaniensis was much less affected by alt_970 (1-log reduction) and not by alt_952 (Figure 7A).
[…] After a 4 h-long incubation, viable bacteria were counted. Diluted samples (50 µL) in sterile seawater were spread in duplicate on appropriate medium. Cultivable bacterial concentration (CFU mL^−1) was determined after overnight incubation at optimal growth temperature.

Pseudoalteromonas hCg-42 = type: cell-based, Pseudoalteromonas sp.; settings: Pseudoalteromonas hCg-42 (producing strain); broth microdilution, 0.1 to 100 µM, 1.10^6 UFC/mL, 48 h, read by unaided eye
Experimental: as §1, §2, §3

Pseudoalteromonas hCg-6 = type: cell-based, Pseudoalteromonas sp.; settings: Pseudoalteromonas hCg-6 (producing strain); broth microdilution, 0.1 to 100 µM, 1.10^6 UFC/mL, 48 h, read by unaided eye
Experimental: as §1, §2, §3

E. coli ML35 = type: cell-based, Escherichia coli; settings: E. coli ML35 (long-chain LPS); broth microdilution, 0.1 to 100 µM, 1.10^6 UFC/mL, 48 h, read by unaided eye
Experimental: as §1, §2, §3

E. coli SBS363 = type: cell-based, Escherichia coli; settings: E. coli SBS363 (short-chain LPS); broth microdilution, 0.1 to 100 µM, 1.10^6 UFC/mL, 48 h, read by unaided eye
Experimental: as §1, §2, §3

S. enterica CIP 8297 = type: cell-based, Salmonella enterica; settings: broth microdilution, 0.1 to 100 µM, 1.10^6 UFC/mL, 48 h, read by unaided eye
Experimental: as §1, §2, §3

With `C/C=C1/NC(=O)[C@@H](NC(=O)CC(O)CCCCCCC)C(O)CNC(=O)[C@H](C(O)CN)NC(=O)[C@H](C(O)CN)NC(=O)[C@H](CCCNC(=N)N)NC(=O)[C@H](CC(C)C)NC(=O)[C@H](CCN)NC1=O` (stereo partly shown) [alt_970] ({Decanoyl(3ξ-OH)}-[Dab(3ξ-OH)][X1][Dab]LR[Dab(3ξ-OH)][Dab(3ξ-OH)]; lactam 1-C) the MIC [1] was 6.25 µM (≈ 6.07 µg/mL), the “LPS binding response (SPR, RU)” value [2] was “the response was halved” and the MIC (Y. ruckeri ATCC 29473) was 1.1 µM (≈ 1.07 µg/mL). For the same compound, the MIC (P. aeruginosa ATCC 27853) was 35.2 µM (≈ 34.2 µg/mL), the MIC (A. caviae CIP 7616) was 17.6 µM (≈ 17.1 µg/mL) and the MIC (V. tasmaniensis LGP 32) was 8.8 µM (≈ 8.55 µg/mL). The MIC (V. tapetis CECT 4600T) was greater than 100 µM, the “cultivability loss of V. tasmaniensis (log reduction of CFU)” value (V. tasmaniensis LGP32) was 1 log and the MIC (Pseudoalteromonas hCg-42) was greater than 100 µM. It also gave an MIC (Pseudoalteromonas hCg-6) greater than 100 µM, an MIC (E. coli ML35) of 35 µM (≈ 34 µg/mL) and an MIC (E. coli SBS363) of 0.1 µM (≈ 0.0971 µg/mL). It also gave an MIC (S. enterica CIP 8297) of 1.1 µM (≈ 1.07 µg/mL).
